Data on 11 molecules can be found in PMC8123621, “Development of Novel Potential Pleiotropic Compounds of Interest in Alzheimer’s Disease Treatment through Rigidification Strategy” (Molecules, 2021).

One test concerns the target T1, human 5-HT6 receptors (Homo sapiens, UniProt P50406).
T1 construct: purchased Perkin Elmer RBHS6M; host or cells: HEK-293 cells, transient expression
Briefly: h5-HT6R radioligand displacement ([3H]-LSD). Type of test: binding. The conditions noted are these: 10^−6 M; 2.5 nM [3H]-LSD. On the procedure:
(§1) The inhibitory activity of novel analogs towards hAChE was evaluated according to the Ellman test.
Drugs were evaluated through their possibility to compete for the binding of [^3H]-LSD on membranes of HEK-293 cells transiently expressing the human 5-HT6 receptors (ref. RBHS6M, Perkin Elmer). […] At the end of the incubation, the homogenates were then filtered through Whatman GF/C filters and washed five times with ice-cold 25 mM Tris-HCl buffer. Non-specific binding was evaluated in the presence of 100 µM serotonin. Radioactivity associated to proteins was then quantified and expressed as the percentage of inhibition of the drugs under study.
(§2) For some of these compounds, affinity constants were calculated from five-point inhibition curves using the GraphPad Prism 6 software and expressed as Ki ± SD.
Background: In a radioligand displacement assay an active substance lowers the binding of a labelled ligand.

Test [1] concerns the target T2, human 5-HT4R (5-HT4(b) membrane preparations) (Homo sapiens, UniProt Q13639).
T2 construct: purchased Eurofins HTS110M
Description: h5-HT4R radioligand displacement ([3H]-GR113808). Type of test: binding. To be noted: for inhibition at 1 µM: 10^−6 M, 0.5 nM [3H]-GR113808. On the procedure:
as §1
At the end of the incubation, homogenates were filtered through Whatman GF/C filters (Alpha Biotech) presoaked with 0.5% polyethylenimine using a Brandel cell harvester. Filters were subsequently washed three times with 1 mL of ice-cold 25 mM Tris buffer (pH 7.4, 4 °C). Non-specific binding was evaluated in parallel in the presence of 30 µM serotonin.
as §2

Test [2] deals with T3, hAChE (AChE from human erythrocytes) (Homo sapiens, UniProt P22303).
T3 construct: AChE from human erythrocytes; purchased Sigma Aldrich; host or cells: human erythrocytes (tissue-derived enzyme)
Description: biochemical. To be noted: for inhibition at 1 µM: read-out: hAChE % Inhibition at 10^−6 M; for IC50: mean ± SEM of three experiments, read-out: hAChE IC50 (nM) (n = 3). On the procedure:
as §1
Inhibitory capacity of compounds on AChE biological activity was evaluated through the use of the spectrometric method of Ellman. Acetylthiocholine iodide and 5,5-dithiobis-(2-nitrobenzoic) acid (DTNB) were purchased from Sigma Aldrich. AChE from human erythrocytes (buffered aqueous solution, ≥500 units/mg protein (BCA), Sigma Aldrich) was diluted in 20 mM HEPES buffer pH 8, 0.1% Triton X-100 such as to have enzyme solution with 0.25 unit/mL enzyme activity. In the procedure, 100 μL of 0.3 mM DTNB dissolved in phosphate buffer pH 7.4 were added into the 96 wells plate followed by 50 μL of test compound solution and 50 μL of enzyme ([…]). After 5 min of preincubation at 25 °C, the reaction was then initiated by the injection of 50 μL of 1 mM acetylthiocholine iodide solution. […] Assays were performed with a blank containing all components except acetylthiocholine, in order to account for non-enzymatic reaction. The reaction slopes were compared and the percent inhibition due to the presence of test compounds was calculated by the following expression: 100 − (vi/v0 × 100) where vi is the rate calculated in the presence of inhibitor and v0 is the enzyme activity.

For test [3], the system named is scopolamine induced deficit. Details: method as in PMID 31316368. To be noted: model of scopolamine induced deficit; cited from earlier work.

T3 sequence (P22303 32-617 isoform P22303-2 limits assumed): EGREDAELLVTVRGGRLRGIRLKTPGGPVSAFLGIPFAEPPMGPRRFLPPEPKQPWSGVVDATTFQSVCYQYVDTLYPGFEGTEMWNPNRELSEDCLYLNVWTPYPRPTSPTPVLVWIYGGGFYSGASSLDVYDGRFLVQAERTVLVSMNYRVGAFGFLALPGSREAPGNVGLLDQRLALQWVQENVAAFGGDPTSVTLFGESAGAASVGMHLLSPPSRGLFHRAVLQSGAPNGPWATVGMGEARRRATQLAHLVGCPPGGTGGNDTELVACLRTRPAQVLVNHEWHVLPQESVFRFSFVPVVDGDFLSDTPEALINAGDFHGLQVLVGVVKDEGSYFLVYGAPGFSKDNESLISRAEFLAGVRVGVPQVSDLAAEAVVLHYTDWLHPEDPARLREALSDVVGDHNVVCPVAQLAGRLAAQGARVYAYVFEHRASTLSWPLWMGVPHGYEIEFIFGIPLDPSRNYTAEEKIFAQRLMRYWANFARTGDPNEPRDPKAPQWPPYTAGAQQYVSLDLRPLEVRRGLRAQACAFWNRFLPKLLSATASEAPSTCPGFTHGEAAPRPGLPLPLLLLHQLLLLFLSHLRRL
T2 sequence (Q13639 whole entry): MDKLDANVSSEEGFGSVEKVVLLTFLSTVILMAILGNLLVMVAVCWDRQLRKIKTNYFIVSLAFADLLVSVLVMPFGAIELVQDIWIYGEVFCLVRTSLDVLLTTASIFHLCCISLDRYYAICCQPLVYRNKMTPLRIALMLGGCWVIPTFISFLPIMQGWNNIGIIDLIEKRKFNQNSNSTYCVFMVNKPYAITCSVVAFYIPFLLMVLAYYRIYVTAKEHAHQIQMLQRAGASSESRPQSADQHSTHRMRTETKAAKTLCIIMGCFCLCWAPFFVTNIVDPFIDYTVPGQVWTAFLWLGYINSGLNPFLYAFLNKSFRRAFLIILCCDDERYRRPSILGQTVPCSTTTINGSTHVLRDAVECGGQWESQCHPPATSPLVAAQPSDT
T1 sequence (P50406 whole entry): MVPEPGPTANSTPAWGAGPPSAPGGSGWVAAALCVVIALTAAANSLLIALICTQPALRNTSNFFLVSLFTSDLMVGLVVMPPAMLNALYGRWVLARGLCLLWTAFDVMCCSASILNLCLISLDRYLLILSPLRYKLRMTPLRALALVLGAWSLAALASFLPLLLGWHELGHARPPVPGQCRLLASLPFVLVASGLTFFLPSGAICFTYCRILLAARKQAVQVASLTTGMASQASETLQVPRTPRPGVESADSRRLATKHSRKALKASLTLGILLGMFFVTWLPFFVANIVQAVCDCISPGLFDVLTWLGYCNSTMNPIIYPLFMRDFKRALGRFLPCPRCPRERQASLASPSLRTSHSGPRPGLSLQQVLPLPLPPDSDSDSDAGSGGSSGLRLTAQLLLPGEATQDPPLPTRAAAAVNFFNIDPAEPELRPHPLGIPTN

Consider `COc1cc(N)c(Cl)cc1-c1nn(C)cc1CC1CCN(CC2CCCCC2)CC1` [3a, 2-chloro-4-(4-((1-(cyclohexylmethyl)piperidin-4-yl)methyl)-1-methyl-1H-pyrazol-3-yl)-5-methoxyaniline], for which the inhibition (commonly the change of the read-out against control, counted positive when it falls) at 1 µM at human 5-HT6 receptors was 2%; in test [1] it was 34%; in test [2], 34%.
As to `COc1cc(N)c(Cl)cc1-c1nn(C)cc1CC1CCN(Cc2cccc(C)c2)CC1` [3b, 2-chloro-5-methoxy-4-(1-methyl-4-((1-(3-methylbenzyl)piperidin-4-yl)methyl)-1H-pyrazol-3-yl)aniline], the values for the inhibition at 1 µM (at human 5-HT6 receptors; in test [1]; in test [2]) were 68%, 20% and 76%, respectively. Moreover, the IC50 (usually the midpoint of a concentration-inhibition curve) in test [2] was 110 ± 4 nM.
For the molecule `COc1cc(NC(C)=O)c(Cl)cc1-c1cc(OCC2CCN(Cc3cccc(C)c3)CC2)n(C)n1` [12b, N-(2-chloro-5-methoxy-4-(1-methyl-5-((1-(3-methylbenzyl)piperidin-4-yl)methoxy)-1H-pyrazol-3-yl)phenyl)acetamide], the inhibition at 1 µM worked out at 0% on human 5-HT6 receptors, 9% in test [1] and 15% in test [2].
Taken in the same sequence, the figures for `Cc1cccc(CN2CCC(COc3cc(-c4ccccc4)nn3C)CC2)c1` [12c, 4-(((1-methyl-3-phenyl-1H-pyrazol-5-yl)oxy)methyl)-1-(3-methylbenzyl)piperidine] were 6%, 10% and 15%.
Taken in the same sequence, the figures for `COc1ccc(-c2cc(OCC3CCN(Cc4cccc(C)c4)CC3)n(C)n2)cc1OC` [12d, 4-(((3-(3,4-dimethoxyphenyl)-1_methyl-1H-pyrazol-5-yl)oxy)methyl)-1-(3-methylbenzyl)piperidine] were 9%, 9% and 6%.
As for `COc1cc(N)c(Cl)cc1C(=O)CCC1CCN(CC2CCCCC2)CC1` [Donecopride, donecopride, reference compound], the inhibition at 1 µM turned out to be 30% on human 5-HT6 receptors, 100% in test [1] and 96% in test [2].
Take `Fc1ccc2c(CCNCc3cccc(OCC(F)(F)C(F)F)c3)c[nH]c2c1` [Idalopirdine, idalopirdine, reference compound]: the inhibition at 1 µM at human 5-HT6 receptors is 106%.
`COc1cc(N)c(Cl)cc1C(=O)CCC1CCN(Cc2cccc(C)c2)CC1` [MR33372, reference compound]: the inhibition at 1 µM at human 5-HT6 receptors was 80%; in test [1], 98%. The “in vivo anti-amnesic effect” value in test [3] is “anti-amnesic effect”.
Consider `CCCCN1CCC(CCC(=O)c2cc(Cl)c(N)cc2OC)CC1` [RS67333, reference compound], for which the inhibition at 1 µM in test [1] turned out to be 100%.
Turning to `COc1cc(NC(C)=O)c(Cl)cc1-c1nn(C)cc1CC1CCN(CC2CCCCC2)CC1` [compound 6, N-(2-chloro-4-(4-((1-(cyclohexylmethyl)piperidin-4-yl)methyl)-1-methyl-1H-pyrazol-3-yl)-5-methoxyphenyl)acetamide], the inhibition at 1 µM at human 5-HT6 receptors turned out to be 0%; in test [1], 16%; in test [2], 31%.
For `COc1cc(NC(C)=O)c(Cl)cc1C(=O)CCC1CCN(CC2CCCCC2)CC1` [compound 7, N-(2-chloro-4-(3-(1-(cyclohexylmethyl)piperidin-4-yl)propanoyl)-5-methoxyphenyl)acetamide], in test [1], the affinity corresponds to a Ki of 300 nM and the inhibition at 1 µM worked out at 94%. In test [2], the IC50 stood at 34 ± 5 nM and the inhibition at 1 µM is 98%.
